Data reported in patent publication US8455544B2, “Synthetic triterpenoids and methods of use in the treatment of disease” (Reata Pharmaecuticals, Inc., priority 2008, dated 2013).

Experiments:
[1] = system: ischemia-reperfusion induced renal damage; test: Mouse model of ischemic acute renal failure (ischemia-reperfusion); type: in vivo
Method: FIGS. 1a-d—RTA 402 reduces renal damage following ischemia-reperfusion. Mice were administered RTA 402 at 2 mg/kg or simply the vehicle (sesame oil) daily by oral gavage beginning on […]. On Day 0, a clamp was placed on the left renal artery for 17 minutes and then removed to induce ischemia-reperfusion. (FIG. 1a) On Day 1, blood was collected from animals that were subjected to clamping and “sham” control animals that underwent surgery without clamping of the renal artery. Blood urea nitrogen (BUN) levels were measured as a surrogate for renal damage. (FIGS. 1b-d) Sections of kidneys from RTA 402-treated or vehicle-treated mice were scored for histological damage (FIGS. 1b & 1d) and inflammation (FIG. 1c). (FIG. 1d) Black arrows (vehicle group) show two of many severely damaged tubules in the outer medulla. Red arrows (RTA 402 group) show two of many undamaged tubules in the outer medulla.
In a mouse model of ischemic acute renal failure, the renal artery is clamped for approximately twenty minutes. After this time, the clamp is removed and the kidney is reperfused with blood. Ischemia-reperfusion results in renal damage and decreased renal function which can be assessed by blood urea nitrogen (BUN) levels, which become elevated following renal damage. As shown in FIGS. 1a-d, surgically-induced ischemia-reperfusion increased BUN levels by approximately 2-fold.

[2] = system: patients with pancreatic cancer; test: Study of RTA 402 in combination with gemcitabine in patients with pancreatic cancer: eGFR; type: in vivo, human; parameters: unit not given here
Method: FIG. 5—RTA 402 increases GFR in human patients with cancer. Estimated glomerular filtration rate (eGFR) was measured in RTA 402-treated patients enrolled in a multi-month clinical trial for the treatment of cancer. All patients (n=11) dosed through six months were included in the analysis. The dosing information for these patients is provided in Example 5, below.
Some of these patients were enrolled in the Phase I study, whereas others were enrolled in a study of RTA 402 (in combination with gemcitabine) in patients with pancreatic cancer.

[3] = system: patients with diabetic nephropathy; test: Phase II clinical trial in patients with diabetic nephropathy (type 2 diabetes with CKD); type: in vivo, human
Method: Serum creatinine has also been measured in patients with chronic kidney disease (CKD) enrolled in an open label Phase II clinical trial of RTA 402. These patients received RTA 402 once daily at three dose levels, 25 mg, 75 mg and 150 mg, for a total of 28 days.
A primary outcome measure for this study is determining the effects of RTA 402 administered orally at the three dose strengths on the glomerular filtration rate (as estimated by the MDRD formula) in patients with diabetic nephropathy.
Secondary outcome measures include: (1) an evaluation of the safety and tolerability of oral RTA 402 administered orally at the three different doses, in this patient population; (2) an evaluation of the effects of RTA 402 administered orally at the three dose strengths on the serum creatinine level, creatinine clearance, and urine albumin/creatinine ratio in patients with diabetic nephropathy; (3) an evaluation of the effects of RTA 402 administered orally at the three dose strengths on hemoglobin A1c in all patients enrolled and on insulin response by the hyperinsulinemic euglycemic clamp test in patients enrolled at only one of the study centers; (4) an evaluation of the effects of RTA 402 at the three different doses on a panel of markers of inflammation, renal injury, oxidative stress, and endothelial cell dysfunction.
The patient population selected for this study all had type 2 diabetes with CKD. Most had been diagnosed with poor glycemic control for two decades. CKD was established through elevated serum creatinine (SCr) levels. Most of the patients had been diagnosed with cardiovascular disease (CVD) and most were receiving standard of care (SOC) treatment for diabetes, CKD and CVD, (e.g., insulin, ACEI/ARB, β-blocker, diuretic, and statin). The baseline demographic can be summarized as follows:
The patient inclusion criteria were as follows: (1) diagnosis of type 2 diabetes; (2) serum creatinine in women 1.3-3.0 mg/dL (115-265 μmol/L), inclusive, and in men 1.5-3.0 mg/dL (133-265 μmol/L), inclusive; (3) patient must agree to practice effective contraception; (4) patient must have a negative urine pregnancy test within 72 hours prior to the first dose of study medication; (5) patient is willing and able to cooperate with all aspects of the protocol and is able to communicate effectively; (6) patient is willing and able to provide written informed consent to participate in this clinical study. […]

[4] = system: patients with diabetic nephropathy; test: Hyperinsulinemic euglycemic clamp test, Phase II study; type: in vivo, human; conditions: after the 28 day treatment
[5] = system: circulating endothelial cells (CECs); test: Circulating endothelial cells (CECs) and iNOS-positive CECs, Phase II study; type: in vivo, human
Source text: The mean number of CECs in cells/mL is shown for intent-to-treat (ITT) and elevated baseline groups, both before and after the 28 day RTA treatment. The reduction for the Intent-to-treat group was approximately 20%, and the reduction in the elevated baseline group (>5 CECs/ml) was approximately 33%. The fraction of iNOS-positive CECs was reduced approximately 29%.
CECs were isolated from whole blood by using CD146 Ab (an antibody to the CD146 antigen that is expressed on endothelial cells and leukocytes). After CEC isolation, a FITC (fluorescein isothiocyanate) conjugated CD105 Ab (a specific antibody for endothelial cells) is used to identify CECs using the CellSearch™ system. A fluorescent conjugate of CD45 Ab was added to stain the leukocytes, and these were then gated out. For a general overview of this method, see Blann et al., (2005), which is incorporated herein by reference in its entirety. CEC samples were also assessed for the presence of iNOS by immunostaining.

COC(=O)[C@]12CCC(C)(C)C[C@H]1[C@H]1C(=O)C=C3[C@@]4(C)C=C(C#N)C(=O)C(C)(C)[C@@H]4CC[C@@]3(C)[C@]1(C)CC2 [RTA 402, methyl-2-cyano-3,12-dioxooleana-1,9-dien-28-oic acid]
Histological measures of kidney damage and inflammation ([1]; 2 mg/kg orally once daily): significantly improved | BUN levels relative to vehicle-treated animals ([1]; 2 mg/kg orally once daily beginning two days prior to surgery, p<0.01): significantly reduced | eGFR ([2]; Pt 1001, dose 150 mg, cycle 1, BL 68.8): 78.9 | eGFR ([2]; Pt 1001, dose 150 mg, cycle 2, BL 68.8): 109.9 | eGFR ([2]; Pt 1001, dose 150 mg, cycle 3, BL 68.8): 135.7 | eGFR ([2]; Pt 1001, dose 150 mg, cycle 4, BL 68.8): 175.5 | eGFR ([2]; Pt 1001, dose 150 mg, cycle 5, BL 68.8): 175.5 | eGFR ([2]; Pt 1001, dose 150 mg, cycle 6, BL 68.8): 135.7 | eGFR ([2]; Pt 1104, dose 300/150 mg, cycle 1, BL 67.3): 95.7 | eGFR ([2]; Pt 1104, dose 300/150 mg, cycle 2, BL 67.3): 71.6 | eGFR ([2]; Pt 1104, dose 300/150 mg, cycle 3, BL 67.3): 141.2 | eGFR ([2]; Pt 1104, dose 300/150 mg, cycle 4, BL 67.3): 95.7 | eGFR ([2]; Pt 1104, dose 300/150 mg, cycle 5, BL 67.3): 114.4 | eGFR ([2]; Pt 1104, dose 300/150 mg, cycle 6, BL 67.3): 114.4 | eGFR ([2]; Pt 1105, dose 300 mg, cycle 1, BL 82.4): 106.6 | eGFR ([2]; Pt 1105, dose 300 mg, cycle 2, BL 82.4): 89.3 | eGFR ([2]; Pt 1105, dose 300 mg, cycle 3, BL 82.4): 106.6 | eGFR ([2]; Pt 1105, dose 300 mg, cycle 4, BL 82.4): 106.6 | eGFR ([2]; Pt 1105, dose 300 mg, cycle 5, BL 82.4): 131.6 | eGFR ([2]; Pt 1105, dose 300 mg, cycle 6, BL 82.4): 170.3 | eGFR ([2]; Pt 1106, dose 300 mg, cycle 1, BL 89.0): 106.3 | eGFR ([2]; Pt 1106, dose 300 mg, cycle 2, BL 89.0): 106.3 | eGFR ([2]; Pt 1106, dose 300 mg, cycle 3, BL 89.0): 106.3 | eGFR ([2]; Pt 1106, dose 300 mg, cycle 4, BL 89.0): 131.2 | eGFR ([2]; Pt 1106, dose 300 mg, cycle 5, BL 89.0): 131.2 | eGFR ([2]; Pt 1106, dose 300 mg, cycle 6, BL 89.0): 131.2 | A1c reduction ([3]; 28 days, elevated baseline (≧7.0 at baseline), n=16): 0.50 | Hemoglobin % A1c reduction ([3]; 28 days, elevated baseline (≧7.0 at baseline), n=35): 0.50 % A1c | A1c reduction ([3]; 28 days, intent-to-treat, n=21, on top of standard of care): 0.34 | Hemoglobin % A1c reduction ([3]; 28 days, intent-to-treat, n=56): approximately 0.25 % A1c | GFR increase, response rate ([3]; 28 days, n=22): 86% | GFR improvement ([3]; 28 days, patients with Stage 4 renal disease): > 30% | Mean % A1c reduction ([3]; 28 days, patients with advanced (Stage 4) renal disease (GFR 15-29 ml/min)): approximately 0.77 % A1c | Eight measures of renal function and status ([3]; serum creatinine based eGFR, creatinine clearance, BUN, serum phosphorus, serum uric acid, Cystatin C, Adiponectin, Angiotensin II): improve significantly | Glucose disposal rate (GDR) [4]: improvements | Glucose disposal rate (GDR) ([4]; more severely impaired patients (GDR<4), p≦0.02): statistically significant improvements | Reduction of mean number of CECs ([5]; 28 days, elevated baseline group (>5 CECs/ml)): approximately 33% | Reduction in CECs ([5]; 28 days, elevated baseline group, n=14, p=0.02): 40% | Reduction of the fraction of iNOS-positive CECs ([5]; 28 days, immunostaining): approximately 29% | Reduction of mean number of CECs ([5]; 28 days, intent-to-treat group): approximately 20% | Reduction in CECs ([5]; 28 days, intent-to-treat group, n=20): 27% | Patients with a normal level for CECs post-treatment ([5]; of the elevated baseline group, n=14): nine | Normalization of CEC values (≦5 cells/mL), patients ([5]; patients with elevated baseline): 11 out of the 19
